Assay results as given in patent US12679878B2, “CRF2 receptor agonists and their use in therapy” (SANOFI, priority 2020, dated 2026).
Converted amounts (≈) assume the structure as drawn. Starred links: 1 amine or outer side, 2 acyl side, 3 side chain; linkers in the order of their positions; H or OH if unused. Non-standard residues stand in square brackets, D forms with d. Residues, ends and D or L forms follow the SMILES beside them. Groups on a side chain read outwards from the residue. *: point of attachment. C16 diacid = O=C(O)CCCCCCCCCCCCCCC(=O)*; γGlu = O=C(O)[C@H](CCC(=O)[*:2])N[*:1]; Palmitoyl = CCCCCCCCCCCCCCCC(=O)*; Aib = CC(C)(N)C(=O)O

Legend:
CRF2R = biological target: T1, CRF2R (Homo sapiens, UniProt Q13324); experiment: EC50 [nM] CRF2R
T1 construct: expressed in transfected cells; host or cells: TeloHEAC
From the text: Table printed on a drawing sheet, Fig. 3
Head of the field: EC50 [nM] CRF2R
The patent's description of the figure: FIG. 3: Representative sequences from peptides according to the invention with an optimized stability profile, wherein K[sema] stands for K[gGlu-C(O)(CH2)14CH3]
First copying reader's note: Second half (positions 13-38, C-term and activity) of the first table; the rows follow the same order, so the four rows of Peptide Seq. 1 are Patent Sequence N° 130, 171, 172 and 173.
Where the first naming reader finds the target: head: EC50 [nM] CRF2R

human CRF2α receptor = biological target: T2, human CRF2α receptor (Homo sapiens, UniProt Q13324); experiment: cAMP agonism at human CRF2α receptor in TeloHEAC cells, FA modified peptides (Example 19.9); assay type: cell-based; details: 0% HSA, relative to urocortin 2
T2 construct: expressed in transfected cells; host or cells: TeloHEAC
T2 sequence (Q13324 1-411): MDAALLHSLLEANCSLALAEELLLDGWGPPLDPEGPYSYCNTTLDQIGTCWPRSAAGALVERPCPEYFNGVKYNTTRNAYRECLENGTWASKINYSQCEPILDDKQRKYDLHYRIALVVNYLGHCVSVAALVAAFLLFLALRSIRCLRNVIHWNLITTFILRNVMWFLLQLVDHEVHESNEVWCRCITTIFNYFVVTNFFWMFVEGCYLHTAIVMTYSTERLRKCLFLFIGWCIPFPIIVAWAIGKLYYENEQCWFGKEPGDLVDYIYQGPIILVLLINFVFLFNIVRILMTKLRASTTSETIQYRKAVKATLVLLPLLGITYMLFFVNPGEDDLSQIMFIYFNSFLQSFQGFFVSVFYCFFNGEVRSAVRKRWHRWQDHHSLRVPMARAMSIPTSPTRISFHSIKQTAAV
Procedure, shortened: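 Efficacy and EC50 are referenced to 100 nM urocortin 2 as 100%, with cAMP measured as the 665/620 nm HTRF ratio after 1 h at room temperature. Compounds (0.5 mM DMSO stock, 16 twofold dilutions) acted 30 min at 37 °C on CRF2α-expressing TeloHEAC cells, buffer containing IBMX and 0% or 0.2% HSA.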

CRF1R receptor = biological target: T3, CRF1R receptor (Homo sapiens, UniProt P34998); experiment: cAMP activity at anti-target CRF1R, CHO-K1 cell line clone 2 (Example 19.10); assay type: cell-based; details: ratio of CRF1 EC50 to CRF2 EC50
T3 construct: host or cells: CHO-K1 clone 2
T3 sequence (P34998 24-415): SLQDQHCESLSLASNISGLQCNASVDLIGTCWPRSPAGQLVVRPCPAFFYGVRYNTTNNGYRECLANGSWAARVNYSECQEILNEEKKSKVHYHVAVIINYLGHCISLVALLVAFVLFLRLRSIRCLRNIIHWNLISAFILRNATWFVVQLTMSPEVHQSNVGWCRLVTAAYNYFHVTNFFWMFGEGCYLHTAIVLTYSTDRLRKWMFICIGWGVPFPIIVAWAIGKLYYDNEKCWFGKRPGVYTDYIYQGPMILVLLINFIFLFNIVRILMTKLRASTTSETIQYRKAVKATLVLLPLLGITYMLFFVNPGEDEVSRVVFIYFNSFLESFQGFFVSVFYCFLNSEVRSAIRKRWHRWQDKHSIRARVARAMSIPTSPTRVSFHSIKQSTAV
Procedure, shortened: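 A CRF1R-overexpressing CHO-K1 line (clone 2) was grown in F12/10% FBS/G418 and frozen in aliquots before use. The cAMP assay followed the preceding procedure, with 100% activation defined by Sauvagine at 100 nM.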

[1] = Buffer solubility by LC-UV, pH 7.4 phosphate and pH 4.5 acetate (Example 19.11); assay type: physicochemical; details: target 10 mg/mL
Procedure: (§1) As for example 15 above, also the chemical stability of representative examples of these FA modified peptides has been assessed, using LC-UV instead of light scattering. Solubility and chemical stability were studied in 100 mM phosphate buffer (pH 7.4) and 100 mM acetate buffer (pH 4.5). Test compound powders were dissolved in both buffers at a target concentration of 10 mg/mL and incubated for 1 hour at room temperature. After centrifugation at 2500 rcf for 15 minutes, […] of supernatant was diluted with […] of the incubation buffer and analyzed by LC-UV (Acquity UPLC-DAD, Waters). Solubility was calculated by comparing the peak area of the test compound in the buffer sample with the peak area of the same compound dissolved at 0.5 mg/ml in water:acetonitrile 1:1, 0.1% formic acid.

[2] = Chemical stability as % loss by LC-UV, 28 days 40° C. vs 5° C. (Example 19.11); assay type: physicochemical
Procedure: as §1
From the centrifuged supernatant, two additional […] aliquots were collected and diluted with […] of incubation buffer. One aliquot was stored at 5° C., while the other was stored at 40° C. After 28 days, the samples were analyzed by LC-UV. Chemical stability was calculated as % loss using the following equations: • Chemical stability (as % loss)=[(purity after 28 days at 5° C.)−(purity after 28 days at 40° C.)]×100/(purity after 28 days at 5° C.) % purity=[(peak area compound)×100/(total peak area)]

`CCCCCCCCCCCCCCCC(=O)N[C@@H](CCC(=O)NCCCC[C@H](NC(=O)[C@H](CC(C)C)NC(=O)[C@H](CCCCN)NC(=O)[C@@H](NC(=O)[C@@H]1CCCN1C(=O)[C@@H](NC(=O)[C@H](CC(=O)O)NC(=O)[C@H](CC(C)C)NC(=O)[C@H](CO)NC(=O)[C@H](CC(C)C)NC(=O)[C@@H](NC(=O)[C@@H](N)[C@@H](C)CC)C(C)C)C(C)C)[C@@H](C)CC)C(=O)N[C@@H](CCCCN)C(=O)N[C@H](C(=O)N[C@@H](CC(C)C)C(=O)N[C@@H](CC(C)C)C(=O)N[C@@H](CCC(=O)O)C(=O)N[C@@H](CCC(N)=O)C(=O)N[C@@H](CCC(=O)O)C(=O)N[C@@H](CCCCN)C(=O)N[C@@H](CCC(N)=O)C(=O)N[C@@H](CCC(=O)O)C(=O)N[C@@H](CCCCN)C(=O)N[C@@H](CCC(=O)O)C(=O)N[C@@H](CCCCN)C(=O)N[C@@H](CCC(N)=O)C(=O)N[C@@H](CCC(N)=O)C(=O)N[C@@H](C)C(=O)N[C@@H](CCC(=O)O)C(=O)N[C@H](C(=O)N[C@@H](CC(N)=O)C(=O)N[C@@H](C)C(=O)N[C@@H](CCC(N)=O)C(=O)N[C@H](C(=O)N[C@@H](CC(C)C)C(=O)N[C@@H](C)C(=O)N[C@@H](CCC(N)=O)C(=O)N[C@H](C(N)=O)C(C)C)[C@@H](C)CC)[C@@H](C)O)[C@@H](C)CC)C(=O)O` [SEQ ID NO: 2] (H-IVLSLDVPIKLK([γGlu-Palmitoyl])KILLEQEKQEKEKQQAETNAQILAQV-NH2) gave an EC50 (CRF2R) of 0.07 nM.
In the case of `CCCCCCCCCCCCCCCC(=O)N[C@@H](CCC(=O)NCCCC[C@H](NC(=O)[C@H](CC(C)C)NC(=O)[C@H](CCCCN)NC(=O)[C@@H](NC(=O)[C@@H]1CCCN1C(=O)[C@@H](NC(=O)[C@H](CC(=O)O)NC(=O)[C@H](CC(C)C)NC(=O)[C@H](CO)NC(=O)[C@H](CC(C)C)NC(=O)[C@@H](NC(=O)[C@@H](N)[C@@H](C)CC)C(C)C)C(C)C)[C@@H](C)CC)C(=O)N[C@@H](CCCCN)C(=O)N[C@H](C(=O)N[C@@H](CC(C)C)C(=O)N[C@@H](CC(C)C)C(=O)N[C@@H](CCC(=O)O)C(=O)N[C@@H](CCC(N)=O)C(=O)N[C@@H](CCC(=O)O)C(=O)N[C@@H](CCCCN)C(=O)N[C@@H](CCC(N)=O)C(=O)N[C@@H](CCC(=O)O)C(=O)N[C@@H](CCCCN)C(=O)N[C@@H](CCC(=O)O)C(=O)N[C@@H](CCCCN)C(=O)N[C@@H](CCC(N)=O)C(=O)N[C@@H](CCC(N)=O)C(=O)N[C@@H](C)C(=O)N[C@@H](CCC(=O)O)C(=O)N[C@@H](CCCCN)C(=O)N[C@@H](CC(N)=O)C(=O)N[C@@H](C)C(=O)N[C@@H](CCC(N)=O)C(=O)N[C@H](C(=O)N[C@@H](CC(C)C)C(=O)N[C@@H](C)C(=O)N[C@@H](CCC(N)=O)C(=O)N[C@H](C(N)=O)C(C)C)[C@@H](C)CC)[C@@H](C)CC)C(=O)O` [SEQ ID NO: 3] (H-IVLSLDVPIKLK([γGlu-Palmitoyl])KILLEQEKQEKEKQQAEKNAQILAQV-NH2), the EC50 (CRF2R) is reported as 0.04 nM.
With `CCCCCCCCCCCCCCCC(=O)N[C@@H](CCC(=O)NCCCC[C@H](NC(=O)[C@H](CC(C)C)NC(=O)CNC(=O)[C@@H](NC(=O)[C@@H]1CCCN1C(=O)[C@@H](NC(=O)[C@H](CC(=O)O)NC(=O)[C@H](CC(C)C)NC(=O)[C@H](CO)NC(=O)[C@H](CC(C)C)NC(=O)[C@@H](NC(=O)[C@@H](N)[C@@H](C)CC)C(C)C)C(C)C)[C@@H](C)CC)C(=O)N[C@@H](CCC(N)=O)C(=O)N[C@@H](CCCCN)C(=O)N[C@@H](CC(C)C)C(=O)N[C@@H](CC(C)C)C(=O)N[C@@H](CCCCN)C(=O)N[C@@H](CCC(N)=O)C(=O)N[C@@H](CCC(=O)O)C(=O)N[C@@H](CCCCN)C(=O)N[C@@H](CCC(N)=O)C(=O)N[C@@H](CCC(=O)O)C(=O)N[C@@H](CCCCN)C(=O)N[C@@H](CCC(=O)O)C(=O)N[C@@H](CCCCN)C(=O)N[C@@H](CCC(N)=O)C(=O)N[C@@H](CCC(N)=O)C(=O)N[C@@H](C)C(=O)N[C@@H](CCC(=O)O)C(=O)N[C@H](C(=O)N[C@@H](CC(N)=O)C(=O)N[C@@H](C)C(=O)N[C@@H](CCCCN)C(=O)N[C@H](C(=O)N[C@@H](CC(C)C)C(=O)N[C@@H](C)C(=O)N[C@@H](CCC(N)=O)C(=O)N[C@H](C(N)=O)C(C)C)[C@@H](C)CC)[C@@H](C)O)C(=O)O` [SEQ ID NO: 4] (H-IVLSLDVPIGLK([γGlu-Palmitoyl])QKLLKQEKQEKEKQQAETNAKILAQV-NH2) the EC50 (CRF2R) was 0.05 nM.
With `CC[C@H](C)[C@H](N)C(=O)N[C@H](C(=O)N[C@@H](CC(C)C)C(=O)N[C@@H](CO)C(=O)N[C@@H](CC(C)C)C(=O)N[C@@H](CC(=O)O)C(=O)N[C@@H](C(=O)N1CCC[C@H]1C(=O)N[C@H](C(=O)N[C@@H](CCCCN)C(=O)N[C@@H](CC(C)C)C(=O)N[C@@H](CCCCNC(=O)CC[C@H](NC(=O)CCCCCCCCCCCCCCC(=O)O)C(=O)O)C(=O)N[C@@H](CCC(N)=O)C(=O)N[C@H](C(=O)N[C@@H](CC(C)C)C(=O)N[C@@H](CC(C)C)C(=O)N[C@@H](CCCCN)C(=O)N[C@@H](CCC(N)=O)C(=O)N[C@@H](CCC(=O)O)C(=O)N[C@@H](CCCNC(=N)N)C(=O)N[C@@H](CCC(N)=O)C(=O)N[C@@H](CCCCN)C(=O)NC(C)(C)C(=O)N[C@@H](CCC(N)=O)C(=O)N[C@@H](CCCNC(=N)N)C(=O)N[C@@H](CCC(N)=O)C(=O)N[C@@H](CCC(N)=O)C(=O)N[C@@H](C)C(=O)N[C@@H](CCC(=O)O)C(=O)N[C@@H](CCCCN)C(=O)N[C@@H](CC(N)=O)C(=O)N[C@@H](CCCCN)C(=O)N[C@@H](CCC(N)=O)C(=O)N[C@H](C(=O)N[C@@H](CC(C)C)C(=O)N[C@@H](C)C(=O)N[C@@H](CCC(N)=O)C(=O)N[C@H](C(N)=O)C(C)C)[C@@H](C)CC)[C@@H](C)CC)[C@@H](C)CC)C(C)C)C(C)C` [compound 188] (H-IVLSLD[dV]PIKLK([γGlu-C16 diacid])QILLKQERQK[Aib]QRQQAEKNKQILAQV-NH2; N-terminus assumed) the EC50 (human CRF2α receptor) was 0.46 nM, the CRF1/CRF2 ratio (CRF1R receptor) was 134 and the solubility at 1 h ([1]; pH 4.5, 100 mM acetate buffer) was 8300 µg/mL (≈ 1710 µM). The solubility at 1 h ([1]; pH 7.4, 100 mM phosphate buffer) was 7900 µg/mL (≈ 1630 µM), the “% loss (chemical stability)” value ([2]; pH 4.5) was 0% and the “% loss (chemical stability)” value ([2]; pH 7.4) was 40%.
